The values that follow come from patent US6310037A, “Method of controlling protozoan infections using syringomycin-family lipodepsipeptides” (Utah State University, priority 1999, dated 2001).

SMILES strings stand for the structures. Where a SMILES comes first, the peptide text is derived from it. Bridges are numbered along the chain shown (N, C = ends). [ ]: non-standard residue; d: D form. The star is where a group is joined. Asp(3S-OH) = N[C@H](C(=O)O)[C@H](O)C(=O)O; Thr(4-Cl) = N[C@H](C(=O)O)[C@H](O)CCl; X1 = CCCCCCCCC[C@@H](O)CC(=O)*; dDab = NCC[C@@H](N)C(=O)O; Dab = NCC[C@H](N)C(=O)O; Dhb = C/C=C(\N)C(=O)O

In this data set the test system is MDBK cells. Kind of data set: Cytotoxicity of Syr-E to MDBK host cells (LDH assay, visual observation). The format is cell-based, bovine. The conditions noted are these: for Syr-E related cytotoxicity (LDH assay) compared to infected and untreated control: Syr-E 5, 10, 15, 20 μg/ml tested. From the text: Madin-Darby bovine kidney (MDBK) epithelial cells were also used to culture C. parvum in this study. Dulbecco's modified Eagle medium (DMEM) with 10% FBS was used for routine passage of MDBK cells purchased from American Type Collection for Culture (Rockville, Md.). Mycoplasma contamination was periodically checked with Hoechst staining (Uphoff et al., 1992). At confluence, MDBK cells were lifted from culture flasks with trypsin, enumerated, and redistributed to assay plates. Ninety-six well cell culture plates were employed to assess cytotoxicity of testing agents or the parasite or both to host cells using neutral red staining or lactic dehydrogenase (LDH) assay.
A volume of 10 μl/well culture supernatant was pipetted into a 96-well plate and mixed with 50 μl/well substrate solution containing 0.75 mM sodium pyruvate and 1 mg beta-NADH/ml. Following incubation at 37° C. for 30 min, the plate was added with 50 μl of 2,4-dinitrophenylhydrazine/well and kept at 25° C. for 20 min., and then the plate was added with a volume of 200 μl/well of 0.6 N NaOH, mixed well, and retained at 25° C. for 10 min. prior to being quantified by the Microplate Autoreader with a wavelength set at 515 nm.
A single concentration of Syr-E at 15 μg/ml was used to treat MDBK cells at pH 7 with C. parvum infection. Group 1 served as an infection control, receiving no Syr-E treatment. Syr-E was administered 1 day prior to parasite inoculation to groups 2, 4, and 5, at the inoculation day to groups 3-5, and 1 day post inoculation to groups 3 and 5, respectively. Following specified administration day(s), supernatants of corresponding wells containing Syr-E were removed and replaced with fresh DMEM base. Cytotoxicity was monitored using lactic dehydrogenase (LDH) assay on day 1 post inoculation. Three coverslips from each group were collected on days 2 and 5 post inoculation, were fixed, and were stained with the specific IFA, as described with reference to Example II.
Group 1 received neither Syr-E treatment nor inoculation and its cytotoxicity was set at 0%, as illustrated on day 2. Group 2 received only C. parvum inoculation serving as an infection control. Groups 3-6 received both the inoculation and Syr-E treatments at 5, 10, 15, and 20 μg/ml, respectively. Data in FIG. 4 are presented as the means +/- standard errors of the mean. […] Cytotoxicity of Syr-E to host cells was measured using LDH assay on both days 1 and 2 post inoculation. More (P<0.01) cytotoxicity was shown on day 1 post inoculation than day 2 post inoculation. […] Overall, more cytotoxicity was observed as Syr-E concentrations increased.

For the compound `C/C=C1\NC(=O)[C@H](Cc2ccccc2)NC(=O)[C@H](CCCNC(=N)N)NC(=O)[C@H](CCN)NC(=O)[C@@H](CCN)NC(=O)[C@@H](CO)NC(=O)[C@@H](NC(=O)C[C@H](O)CCCCCCCCC)COC(=O)[C@H]([C@H](O)CCl)NC(=O)[C@H]([C@H](O)C(=O)O)NC1=O` [Syr-E, Syringomycin-E] (X1-S[dS][dDab][Dab]RF[Dhb][Asp(3S-OH)][Thr(4-Cl)]; ester 1-C), the visual cell damage result (Syr-E 15 μg/ml, MDBK cells, pH 7, Table 1 schedule) is reported as “no visual cell damage observed”. Also, the “cytotoxicity by LDH assay, treatment schedule groups vs untreated control” value (Syr-E 15 μg/ml, MDBK cells, pH 7, day 1 post inoculation, Table 1 schedule) is on record as “failed to show significant differences between groups except group 3”. Moreover, the “visible cell damage on cell monolayers” value (Syr-E 5-20 μg/ml, MDBK cells, pH 7.0) is “No obvious cell peeling or plaques formed on cell monolayers”. For the same compound, the “Syr-E related cytotoxicity (LDH assay) compared to infected and untreated control” value (pH 7.0, day 1 post inoculation) is given as “cytotoxicity appeared at 20 μg/ml on day 1 post inoculation”; the “Syr-E related cytotoxicity (LDH assay) compared to infected and untreated control” value (pH 7.0, day 2 post inoculation) was 15 and 20 μg/ml on day 2 post inoculation.
